Series [1] deals with Diplococcus pneumoniae, Til strain (Institut Pasteur). In words: Bacteriostatic activity in vitro (dilution method). The following applies: nutrient broth. Format: cell-based.
The test system of series [2] is Neisseria catarrhalis (A 152, Institut Pasteur). In words: Bacteriostatic activity in vitro (dilution method). Format: cell-based. The following applies: nutrient broth.
The subject of series [3] is Streptococcus pyogenes haemolyticus, Dig 7 strain (Institut Pasteur). In words: Bacteriostatic activity in vitro (dilution method). Format: cell-based. The following applies: nutrient broth.
Another series has as its system chickens. In words: Toxicity of medicated feed in chickens (non-toxic concentrations). Conditions: between 0.005% and 0.04% by weight in feed. Format: in vivo. As to the method:
Anti-coccidial activity: the anti-coccidial activity was determined in chickens infested in particular with Eimeria tenella and Eimeria acervulina.
The anti-coccidial activity of 37,454 RP (sodium salt), incorporated into chicken feed, manifests itself at non-toxic concentrations of between 0.005% and 0.04% by weight of the sodium salt in the feed.

For series [4], the system named is Staphylococcus aureus,strain 209 P- ATCC 6538 P. In words: Bacteriostatic activity in vitro (dilution method). Format: cell-based. The following applies: nutrient broth.
For series [5], the system named is Sarcina lutea - ATCC 9341. In words: Bacteriostatic activity in vitro (dilution method). It is filed as cell-based. The following applies: nutrient broth.
Series [6] relates to Streptococcus faecalis - ATCC 8043. In words: Bacteriostatic activity in vitro (dilution method). It is filed as cell-based. The following applies: nutrient broth.
The test system of a further series is Proteus vulgaris. In words: Bacteriostatic activity in vitro (dilution method). It is filed as cell-based. The following applies: nutrient broth.
Series [7] concerns Bacillus subtilis - ATCC 6633. In words: Bacteriostatic activity in vitro (dilution method). The following applies: nutrient broth. Format: cell-based.
Series [8] deals with Mycobacterium species - ATCC 607. In words: Bacteriostatic activity in vitro (dilution method). Format: cell-based. Conditions: nutrient broth.
The subject of series [9] is Staphylococcus aureus,Smith strain. In words: Bacteriostatic activity in vitro (dilution method). It is filed as cell-based. The following applies: nutrient broth.
Series [10] deals with Shigella dysenteriae, Shiga L (Institut Pasteur). It is filed as cell-based. Conditions: nutrient broth.
Series [11] has as its system Salmonella schottmuelleri (paratyphi B), Fougenc strain (Institut Pasteur). In words: Bacteriostatic activity in vitro (dilution method). Format: cell-based. The following applies: nutrient broth.
The test system of series [12] is Bacillus cereus - ATCC 6630. In words: Bacteriostatic activity in vitro (dilution method). Conditions: nutrient broth. Format: cell-based.
The test system of a further series is Pseudomonas aeruginosa. In words: Bacteriostatic activity in vitro (dilution method). Conditions: nutrient broth. It is filed as cell-based.
The next series concerns mice. In words: Acute toxicity in mice. It is filed as in vivo. Conditions: orally, single dose. The method, then:
Acute toxicity: in mice, the 50% lethal dose (LD50) is 90 mg/kg given orally in a single dose.

Consider `CO[C@H]1CC[C@H](O[C@H]2[C@H](C)[C@@H]([C@H]3CC[C@H]([C@@H]4CC[C@H]([C@@]5(C)OC6(O[C@H](C[C@@H]7O[C@](O)([C@@H](O)C(=O)[O-])[C@@H](C)[C@H](OC)[C@@]7(C)OC)C[C@@H](OC)[C@H]6C)[C@H](C)[C@H]5OC)O4)O3)O[C@](C)(O)[C@@H]2C)O[C@@H]1C.[Na+]` (stereo partly shown) [37,454 RP (sodium salt)], for which the Minimum bacteriostatic concentration in [1] is recorded as 0.1 μg/cc; in series [2], greater than 20 μg/cc; in series [3], 0.6 μg/cc; in [4], 0.6 μg/cc; in series [5], 0.9 μg/cc; in [6], 0.3 μg/cc. The Minimum bacteriostatic concentration in the series with Proteus vulgaris is reported as greater than 50 μg/cc; in [7], 0.8 μg/cc; in series [8], 10 μg/cc; in series [9], 0.8 μg/cc; in series [10], greater than 50 μg/cc; in [11], greater than 50 μg/cc. Further, the Minimum bacteriostatic concentration in [12] is recorded as 0.3 μg/cc; in the series on Pseudomonas aeruginosa, greater than 15 μg/cc. Further, the “Toxicity at active feed concentrations” value in the series on chickens is reported as “non-toxic”. Also, in the series with mice, the “50% lethal dose (LD50)” value stood at 90 mg/kg.

The record behind these values is patent US4293650A, “Anti-coccidial substance and its preparation” (Rhone-Poulenc Industries, priority 1977, dated 1981).
